From ChEMBL document CHEMBL2311451, “Discovery of a selective M₄ positive allosteric modulator based on the 3-amino-thieno[2,3-b]pyridine-2-carboxamide scaffold: development of ML253, a potent and brain penetrant compound that is active in a preclinical model of schizophrenia” (Bioorg Med Chem Lett, 2013)

Legend:
[1] = molecular target: T1, Muscarinic acetylcholine receptor M4 (Homo sapiens) (UniProt P08173); experiment: Positive allosteric modulation of human muscarinic M4 receptor expressed in CHO-K1 cells assessed as leftward shift in acetylcholine response treated for 144 secs prior to acetylcholine addition measured for 5 mins by Fluo-4-AM based calcium mobilization assay relative to control; format: functional, cell-based
T1 sequence (whole entry): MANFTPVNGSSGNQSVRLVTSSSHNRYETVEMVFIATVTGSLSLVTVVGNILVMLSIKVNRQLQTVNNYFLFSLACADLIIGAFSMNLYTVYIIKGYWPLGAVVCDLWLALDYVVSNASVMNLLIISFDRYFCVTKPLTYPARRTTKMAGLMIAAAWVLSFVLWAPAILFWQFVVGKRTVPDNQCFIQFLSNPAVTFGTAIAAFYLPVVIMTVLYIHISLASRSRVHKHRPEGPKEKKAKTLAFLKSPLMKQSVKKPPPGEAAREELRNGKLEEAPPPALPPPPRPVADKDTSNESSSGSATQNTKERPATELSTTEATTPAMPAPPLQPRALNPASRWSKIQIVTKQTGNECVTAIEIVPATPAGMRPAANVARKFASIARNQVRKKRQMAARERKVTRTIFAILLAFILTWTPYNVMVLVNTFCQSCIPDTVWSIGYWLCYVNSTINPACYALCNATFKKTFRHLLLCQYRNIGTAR

[2] = molecular target: T2, Muscarinic acetylcholine receptor M4 (Homo sapiens, UniProt P08173); experiment: Positive allosteric modulation of human muscarinic M4 receptor expressed in CHO-K1 cells assessed as leftward shift in acetylcholine response treated for 144 secs prior to acetylcholine addition measured for 5 mins by Fluo-4-AM based calcium mobilization assay; format: functional, cell-based
T2 sequence (P08173 whole entry): T1 sequence (whole entry)

Rattus norvegicus [3] = experiment: Antipsychotic activity in Sprague-Dawley rat assessed as reversal of amphetamine-induced hyperlocomotion at 100 mg/kg, ip after 90 mins; format: functional; settings: route intraperitoneal
Rattus norvegicus [4] = experiment: Antipsychotic activity in Sprague-Dawley rat assessed as reversal of amphetamine-induced hyperlocomotion at 56.6 mg/kg, ip after 90 mins; format: functional; settings: route intraperitoneal
Rattus norvegicus [5] = experiment: Antipsychotic activity in Sprague-Dawley rat assessed as reversal of amphetamine-induced hyperlocomotion at 30 mg/kg, ip after 90 mins; format: functional; settings: route intraperitoneal
Rattus norvegicus [6] = experiment: Antipsychotic activity in Sprague-Dawley rat assessed as reversal of amphetamine-induced hyperlocomotion at 10 mg/kg, ip after 90 mins; format: functional; settings: route intraperitoneal
Rattus norvegicus [7] = experiment: Antipsychotic activity in Sprague-Dawley rat assessed as reversal of amphetamine-induced hyperlocomotion at 3 mg/kg, ip after 90 mins; format: functional; settings: route intraperitoneal
Brain = experiment: Drug level in rat brain at 10 mg/kg, ip up to 6 hrs; format: ADME, organism-based; design: dose 10 mg/kg, route intraperitoneal; settings: in vivo
[8] = AUC in rat at 1 mg/kg, iv; format: ADME, organism-based; design: dose 1 mg/kg, route intravenous; settings: plasma
[9] = Mean residence time in rat at 1 mg/kg, iv; format: ADME, organism-based; design: dose 1 mg/kg, route intravenous; settings: in vivo
[10] = Volume of distribution at steady state in rat at 1 mg/kg, iv; format: ADME, organism-based; design: dose 1 mg/kg, route intravenous; settings: in vivo, read-out: Vdss
[11] = Half life in rat at 1 mg/kg, iv; format: ADME, organism-based; design: dose 1 mg/kg, route intravenous; settings: in vivo
[12] = Clearance in rat at 1 mg/kg, iv; format: ADME, organism-based; design: dose 1 mg/kg, route intravenous; settings: in vivo
[13] = molecular target: Sodium-dependent dopamine transporter (Homo sapiens) (UniProt Q01959); experiment: Binding affinity to human DAT at 10 uM by radioligand binding assay
Rattus norvegicus [14] = species on record: Rattus norvegicus; experiment: Binding affinity to rat GABAA receptor at 10 uM by radioligand binding assay
[15] = molecular target: Muscarinic acetylcholine receptor M5 (Rattus norvegicus, UniProt P08911); experiment: Positive allosteric modulation of rat muscarinic M5 receptor assessed as acetylcholine response
[16] = molecular target: Muscarinic acetylcholine receptor M5 (Homo sapiens, UniProt P08912); experiment: Positive allosteric modulation of human muscarinic M5 receptor expressed in CHO-K1 cells assessed as leftward shift in acetylcholine response treated for 144 secs prior to acetylcholine addition measured for 5 mins by Fluo-4-AM based calcium mobilization assay; format: functional, cell-based
[17] = molecular target: Muscarinic acetylcholine receptor M3 (Rattus norvegicus, UniProt P08483); experiment: Positive allosteric modulation of rat muscarinic M3 receptor assessed as acetylcholine response
[18] = molecular target: Muscarinic acetylcholine receptor M3 (Homo sapiens, UniProt P20309); experiment: Positive allosteric modulation of human muscarinic M3 receptor expressed in CHO-K1 cells assessed as leftward shift in acetylcholine response treated for 144 secs prior to acetylcholine addition measured for 5 mins by Fluo-4-AM based calcium mobilization assay; format: functional, cell-based
[19] = molecular target: Muscarinic acetylcholine receptor M2 (Rattus norvegicus, UniProt P10980); experiment: Positive allosteric modulation of rat muscarinic M2 receptor assessed as acetylcholine response
[20] = molecular target: Muscarinic acetylcholine receptor M2 (Homo sapiens, UniProt P08172); experiment: Positive allosteric modulation of human muscarinic M2 receptor expressed in CHO-K1 cells assessed as leftward shift in acetylcholine response treated for 144 secs prior to acetylcholine addition measured for 5 mins by Fluo-4-AM based calcium mobilization assay; format: functional, cell-based
[21] = molecular target: Muscarinic acetylcholine receptor M1 (Rattus norvegicus, UniProt P08482); experiment: Positive allosteric modulation of rat muscarinic M1 receptor assessed as acetylcholine response
[22] = molecular target: Muscarinic acetylcholine receptor M1 (Homo sapiens, UniProt P11229); experiment: Positive allosteric modulation of human muscarinic M1 receptor expressed in CHO-K1 cells assessed as leftward shift in acetylcholine response treated for 144 secs prior to acetylcholine addition measured for 5 mins by Fluo-4-AM based calcium mobilization assay; format: functional, cell-based
Plasma [23] = experiment: Fraction unbound in rat plasma; format: ADME, cell-free
[24] = molecular target: Muscarinic acetylcholine receptor M4 (Rattus norvegicus) (UniProt P08485); experiment: Positive allosteric modulation of rat muscarinic M4 receptor assessed as acetylcholine response at 10 uM relative to acetylcholine
[25] = molecular target: T1, Muscarinic acetylcholine receptor M4 (Homo sapiens); experiment: Positive allosteric modulation of human muscarinic M4 receptor expressed in CHO-K1 cells assessed as leftward shift in acetylcholine response at 10 uM treated for 144 secs prior to acetylcholine addition measured for 5 mins by Fluo-4-AM based calcium mobilization assay relative to acetylcholine; format: functional, cell-based
[26] = molecular target: T3, Muscarinic acetylcholine receptor M4 (Rattus norvegicus, UniProt P08485); experiment: Positive allosteric modulation of rat muscarinic M4 receptor assessed as acetylcholine response
T3 sequence (P08485 whole entry): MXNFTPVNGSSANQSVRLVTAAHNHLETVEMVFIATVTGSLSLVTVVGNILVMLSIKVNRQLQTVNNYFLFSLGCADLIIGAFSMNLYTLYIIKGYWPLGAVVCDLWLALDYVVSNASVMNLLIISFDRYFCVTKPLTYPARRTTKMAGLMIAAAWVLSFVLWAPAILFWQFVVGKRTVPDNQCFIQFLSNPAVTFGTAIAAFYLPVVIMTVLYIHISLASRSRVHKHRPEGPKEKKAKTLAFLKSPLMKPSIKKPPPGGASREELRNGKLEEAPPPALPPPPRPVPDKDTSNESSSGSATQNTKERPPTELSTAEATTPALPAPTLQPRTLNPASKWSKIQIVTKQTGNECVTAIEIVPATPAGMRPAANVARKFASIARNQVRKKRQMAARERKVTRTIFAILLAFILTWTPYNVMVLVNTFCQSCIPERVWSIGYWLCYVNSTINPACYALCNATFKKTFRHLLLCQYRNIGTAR

Rattus norvegicus [27] = experiment: Antipsychotic activity in ip dosed Sprague-Dawley rat assessed as reversal of amphetamine-induced hyperlocomotion after 90 mins; format: functional, organism-based
[28] = Systemic plasma AUC in rat at 10 mg/kg, ip up to 6 hrs
[29] = molecular target: Muscarinic acetylcholine receptor M2 (Rattus norvegicus) (UniProt P10980); experiment: Positive allosteric modulation of rat muscarinic M2 receptor assessed as acetylcholine response relative to control
[30] = molecular target: Muscarinic acetylcholine receptor M2 (Homo sapiens) (UniProt P08172); experiment: Positive allosteric modulation of human muscarinic M2 receptor expressed in CHO-K1 cells assessed as leftward shift in acetylcholine response treated for 144 secs prior to acetylcholine addition measured for 5 mins by Fluo-4-AM based calcium mobilization assay relative to control; format: functional, cell-based
[31] = molecular target: Muscarinic acetylcholine receptor M1 (Rattus norvegicus) (UniProt P08482); experiment: Positive allosteric modulation of rat muscarinic M1 receptor assessed as acetylcholine response relative to control
[32] = molecular target: Muscarinic acetylcholine receptor M1 (Homo sapiens) (UniProt P11229); experiment: Positive allosteric modulation of human muscarinic M1 receptor expressed in CHO-K1 cells assessed as leftward shift in acetylcholine response treated for 144 secs prior to acetylcholine addition measured for 5 mins by Fluo-4-AM based calcium mobilization assay relative to control; format: functional, cell-based
Plasma [33] = experiment: Fraction unbound in human plasma; format: ADME, cell-free

Sequence of Muscarinic acetylcholine receptor M5 (Homo sapiens, UniProt P08912) (P08912 whole entry): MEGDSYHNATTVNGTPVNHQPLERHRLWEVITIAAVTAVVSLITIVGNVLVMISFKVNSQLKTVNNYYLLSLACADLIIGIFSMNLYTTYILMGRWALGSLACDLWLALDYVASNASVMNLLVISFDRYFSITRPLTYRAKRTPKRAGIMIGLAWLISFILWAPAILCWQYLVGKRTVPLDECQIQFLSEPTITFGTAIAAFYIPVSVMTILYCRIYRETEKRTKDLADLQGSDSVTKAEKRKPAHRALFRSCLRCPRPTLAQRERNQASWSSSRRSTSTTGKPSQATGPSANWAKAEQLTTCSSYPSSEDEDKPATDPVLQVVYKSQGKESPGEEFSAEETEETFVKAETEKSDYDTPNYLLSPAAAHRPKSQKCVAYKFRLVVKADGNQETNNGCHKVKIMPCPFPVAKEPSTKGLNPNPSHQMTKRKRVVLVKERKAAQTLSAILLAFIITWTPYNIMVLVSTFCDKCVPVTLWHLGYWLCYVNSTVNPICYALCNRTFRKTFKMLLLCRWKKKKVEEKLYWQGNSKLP
Sequence of Muscarinic acetylcholine receptor M3 (Rattus norvegicus, UniProt P08483) (P08483 whole entry): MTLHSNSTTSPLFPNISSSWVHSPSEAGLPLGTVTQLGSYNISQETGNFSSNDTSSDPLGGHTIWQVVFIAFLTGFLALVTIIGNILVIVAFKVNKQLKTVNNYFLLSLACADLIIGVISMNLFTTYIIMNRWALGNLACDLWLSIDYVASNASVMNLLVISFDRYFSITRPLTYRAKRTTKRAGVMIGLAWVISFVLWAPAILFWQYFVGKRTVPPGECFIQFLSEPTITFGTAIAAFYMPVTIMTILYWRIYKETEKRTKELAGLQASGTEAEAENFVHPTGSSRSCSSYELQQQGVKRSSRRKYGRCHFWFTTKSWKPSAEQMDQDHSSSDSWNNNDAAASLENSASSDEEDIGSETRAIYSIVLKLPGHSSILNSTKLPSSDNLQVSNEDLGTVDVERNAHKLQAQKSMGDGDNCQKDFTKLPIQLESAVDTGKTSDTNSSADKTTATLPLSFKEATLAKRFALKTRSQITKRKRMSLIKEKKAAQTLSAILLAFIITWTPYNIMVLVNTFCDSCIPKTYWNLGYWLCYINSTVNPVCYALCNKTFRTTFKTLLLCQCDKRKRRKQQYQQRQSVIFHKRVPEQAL
Sequence of Muscarinic acetylcholine receptor M5 (Rattus norvegicus, UniProt P08911) (P08911 whole entry): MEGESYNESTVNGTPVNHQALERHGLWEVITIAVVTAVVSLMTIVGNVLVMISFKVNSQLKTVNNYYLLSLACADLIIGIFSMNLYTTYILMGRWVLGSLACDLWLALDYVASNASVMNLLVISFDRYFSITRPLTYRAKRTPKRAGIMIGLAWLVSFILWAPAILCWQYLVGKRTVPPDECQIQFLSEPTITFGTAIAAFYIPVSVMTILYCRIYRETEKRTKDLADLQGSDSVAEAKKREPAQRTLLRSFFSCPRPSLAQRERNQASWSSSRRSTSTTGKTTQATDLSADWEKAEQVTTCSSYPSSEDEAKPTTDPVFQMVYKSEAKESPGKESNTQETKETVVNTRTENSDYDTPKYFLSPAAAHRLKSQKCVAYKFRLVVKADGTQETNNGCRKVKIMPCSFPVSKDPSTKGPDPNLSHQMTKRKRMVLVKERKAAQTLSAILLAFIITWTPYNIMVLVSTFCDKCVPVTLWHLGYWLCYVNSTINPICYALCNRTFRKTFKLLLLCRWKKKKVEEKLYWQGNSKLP
Sequence of Muscarinic acetylcholine receptor M3 (Homo sapiens, UniProt P20309) (P20309 whole entry): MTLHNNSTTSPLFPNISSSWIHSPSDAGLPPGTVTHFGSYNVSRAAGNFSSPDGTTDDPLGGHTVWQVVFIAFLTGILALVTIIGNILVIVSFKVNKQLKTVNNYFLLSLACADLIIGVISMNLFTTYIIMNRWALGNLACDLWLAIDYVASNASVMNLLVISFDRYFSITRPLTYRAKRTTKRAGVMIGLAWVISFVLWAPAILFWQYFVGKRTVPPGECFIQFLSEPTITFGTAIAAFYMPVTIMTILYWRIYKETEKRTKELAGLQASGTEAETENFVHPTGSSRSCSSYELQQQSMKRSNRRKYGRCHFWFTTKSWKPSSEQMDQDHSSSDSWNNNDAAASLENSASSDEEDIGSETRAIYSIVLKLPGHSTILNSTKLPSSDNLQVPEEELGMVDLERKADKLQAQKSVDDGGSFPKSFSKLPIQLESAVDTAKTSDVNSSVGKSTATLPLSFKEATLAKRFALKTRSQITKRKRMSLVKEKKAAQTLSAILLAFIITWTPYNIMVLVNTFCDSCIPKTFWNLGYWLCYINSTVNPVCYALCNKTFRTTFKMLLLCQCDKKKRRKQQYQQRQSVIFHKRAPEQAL
Sequence of Muscarinic acetylcholine receptor M2 (Rattus norvegicus, UniProt P10980) (P10980 whole entry): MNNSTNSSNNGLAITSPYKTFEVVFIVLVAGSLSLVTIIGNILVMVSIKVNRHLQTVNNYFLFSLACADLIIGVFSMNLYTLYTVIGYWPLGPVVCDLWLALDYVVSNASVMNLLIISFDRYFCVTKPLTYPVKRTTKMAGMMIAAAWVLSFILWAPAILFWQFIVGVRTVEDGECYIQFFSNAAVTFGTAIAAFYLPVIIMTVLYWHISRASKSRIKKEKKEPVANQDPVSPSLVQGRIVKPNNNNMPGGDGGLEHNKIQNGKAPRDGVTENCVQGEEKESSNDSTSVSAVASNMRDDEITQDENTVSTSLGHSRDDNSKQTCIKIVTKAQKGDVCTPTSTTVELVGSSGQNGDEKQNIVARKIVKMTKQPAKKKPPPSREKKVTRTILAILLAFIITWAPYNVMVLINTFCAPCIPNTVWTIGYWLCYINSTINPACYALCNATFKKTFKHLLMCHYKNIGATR
Sequence of Muscarinic acetylcholine receptor M2 (Homo sapiens, UniProt P08172) (P08172 whole entry): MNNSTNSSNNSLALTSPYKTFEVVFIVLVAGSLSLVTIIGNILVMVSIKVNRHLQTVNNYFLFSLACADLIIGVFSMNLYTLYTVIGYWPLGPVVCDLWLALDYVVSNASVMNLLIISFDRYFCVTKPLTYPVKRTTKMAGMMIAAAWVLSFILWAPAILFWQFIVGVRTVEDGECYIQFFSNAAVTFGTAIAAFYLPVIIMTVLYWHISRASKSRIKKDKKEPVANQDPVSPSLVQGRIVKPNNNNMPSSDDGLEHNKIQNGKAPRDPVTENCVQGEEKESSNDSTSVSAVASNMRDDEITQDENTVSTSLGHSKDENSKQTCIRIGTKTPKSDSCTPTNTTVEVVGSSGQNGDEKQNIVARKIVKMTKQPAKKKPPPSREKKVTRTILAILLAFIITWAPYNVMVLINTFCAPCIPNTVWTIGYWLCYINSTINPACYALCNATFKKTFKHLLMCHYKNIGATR
Sequence of Muscarinic acetylcholine receptor M1 (Rattus norvegicus, UniProt P08482) (P08482 whole entry): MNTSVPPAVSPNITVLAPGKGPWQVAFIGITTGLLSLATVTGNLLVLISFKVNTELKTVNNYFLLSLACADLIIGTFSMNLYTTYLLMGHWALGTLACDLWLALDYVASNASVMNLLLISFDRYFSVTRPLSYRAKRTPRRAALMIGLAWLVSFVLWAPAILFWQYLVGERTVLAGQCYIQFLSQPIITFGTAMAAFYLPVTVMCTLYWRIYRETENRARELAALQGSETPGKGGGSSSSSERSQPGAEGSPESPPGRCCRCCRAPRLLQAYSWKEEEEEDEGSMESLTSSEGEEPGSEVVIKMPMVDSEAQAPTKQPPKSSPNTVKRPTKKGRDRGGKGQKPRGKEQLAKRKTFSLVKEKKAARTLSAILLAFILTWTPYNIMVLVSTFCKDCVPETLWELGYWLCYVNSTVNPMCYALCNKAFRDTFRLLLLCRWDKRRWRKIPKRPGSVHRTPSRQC
Sequence of Muscarinic acetylcholine receptor M1 (Homo sapiens, UniProt P11229) (P11229 whole entry): as the sequence (P08482 whole entry) above, with V5A, S254T, S309P, K320R, G337A, V413I counted along it
Sequence of Muscarinic acetylcholine receptor M2 (Rattus norvegicus) (P10980 whole entry): as the sequence (P10980 whole entry) above
Sequence of Muscarinic acetylcholine receptor M2 (Homo sapiens) (P08172 whole entry): as the sequence (P08172 whole entry) above
Sequence of Muscarinic acetylcholine receptor M1 (Rattus norvegicus) (P08482 whole entry): as the sequence (P08482 whole entry) above
Sequence of Sodium-dependent dopamine transporter (Homo sapiens) (Q01959 whole entry): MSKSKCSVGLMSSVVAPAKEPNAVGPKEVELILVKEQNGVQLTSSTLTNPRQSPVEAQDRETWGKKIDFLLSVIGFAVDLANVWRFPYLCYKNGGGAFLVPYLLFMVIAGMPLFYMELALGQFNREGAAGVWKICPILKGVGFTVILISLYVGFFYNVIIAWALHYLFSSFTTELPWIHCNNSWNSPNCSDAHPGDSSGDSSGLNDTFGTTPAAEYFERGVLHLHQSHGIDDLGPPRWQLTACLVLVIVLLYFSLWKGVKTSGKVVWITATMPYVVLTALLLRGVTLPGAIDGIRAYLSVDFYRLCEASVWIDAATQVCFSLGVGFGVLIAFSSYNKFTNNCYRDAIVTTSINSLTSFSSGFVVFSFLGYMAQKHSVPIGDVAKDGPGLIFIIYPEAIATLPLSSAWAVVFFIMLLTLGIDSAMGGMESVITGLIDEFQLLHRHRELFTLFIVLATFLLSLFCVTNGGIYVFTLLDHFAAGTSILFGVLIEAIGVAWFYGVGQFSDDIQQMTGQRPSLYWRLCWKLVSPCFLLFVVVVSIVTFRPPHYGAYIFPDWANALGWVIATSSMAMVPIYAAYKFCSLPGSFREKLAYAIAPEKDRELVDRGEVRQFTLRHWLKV
Sequence of Muscarinic acetylcholine receptor M1 (Homo sapiens) (P11229 whole entry): as the sequence (P08482 whole entry) above, with V5A, S254T, S309P, K320R, G337A, V413I counted along it

Cc1cc(CNC(=O)c2sc3nc(C)c(Cl)c(C)c3c2N)ccn1
%max [1]: 75.8% | EC50 ([2]; read-out: EC50): 61 nM

Cc1nc2sc(C(=O)NCc3ccncc3)c(N)c2c(C)c1Cl
Activity (Rattus norvegicus [3]): 57.3% | Activity (Rattus norvegicus [4]): 53.7% | Activity (Rattus norvegicus [5]): 47.9% | Activity (Rattus norvegicus [6]): 25.7% | Activity (Rattus norvegicus [7]): 18.7% | Drug uptake (Brain): 3410 ng/g | AUC [8]: 175 ng·h/mL | MRT [9]: 27.5 min | Vd [10]: 2.6 L/kg | half-life [11]: 17.5 min | clearance [12]: 104 mL/min/kg | inhibition [13]: 74% | inhibition (Rattus norvegicus [14]): 64% | EC50 [15]: > 30 µM | EC50 [16]: > 30 µM | EC50 [17]: > 30 µM | EC50 [18]: > 30 µM | EC50 [19]: > 30000 nM | EC50 [20]: > 30000 nM | EC50 [21]: > 30000 nM | EC50 [22]: > 30000 nM | Fu (Plasma [23]): 1.7% | fold change (FC) [24]: 49.6 | fold change (FC) [25]: 106 | EC50 [26]: 176 nM | %max [1]: 94.1% | EC50 ([2]; read-out: EC50): 56 nM | Activity (Rattus norvegicus [27]): Dose-dependent effect | AUC at 6 h [28]: 3880 ng·h/mL

Cc1nc2sc(C(=O)NCCc3ccncc3)c(N)c2c(C)c1Cl
%max [1]: 74.5% | EC50 ([2]; read-out: EC50): 128 nM

Cc1nc2sc(C(=O)NC(C)c3ccccn3)c(N)c2c(C)c1Cl (stereo not given)
%max [1]: 51.1% | EC50 ([2]; read-out: EC50): 1370 nM

COc1ccc(NC(=O)c2sc3nc(C)c(Cl)c(C)c3c2N)cc1
%max [1]: 30.7% | EC50 ([2]; read-out: EC50): > 10000 nM

Cc1nc2sc(C(=O)NCc3cccc(F)c3F)c(N)c2c(C)c1Cl
%max [1]: 79.5% | EC50 ([2]; read-out: EC50): 124 nM

Cc1nc2sc(C(=O)NCCc3cccnc3)c(N)c2c(C)c1Cl
EC50 ([2]; read-out: pEC50 (converted)): > 30200 nM

Cc1ccc(CNC(=O)c2sc3nc(C)c(Cl)c(C)c3c2N)cc1
%max [1]: 46.8% | EC50 ([2]; read-out: EC50): 104 nM

Cc1nc2sc(C(=O)NCc3ccncn3)c(N)c2c(C)c1Cl
%max [1]: 78.5% | EC50 ([2]; read-out: EC50): 271 nM

Cc1nc2sc(C(=O)NCCC3CCCN3C)c(N)c2c(C)c1Cl (stereo not given)
%max [1]: 38% | EC50 ([2]; read-out: EC50): 926 nM

Cc1nc2sc(C(=O)NCc3ccccc3N(C)C)c(N)c2c(C)c1Cl
EC50 ([2]; read-out: EC50): > 30000 nM

Cc1nc2sc(C(=O)NCc3ccc(C(F)(F)F)cc3)c(N)c2c(C)c1Cl
%max [1]: 33.6% | EC50 ([2]; read-out: EC50): 1750 nM

Cc1nc2sc(C(=O)NCc3ccccn3)c(N)c2c(C)c1Cl
%max [1]: 74.1% | EC50 ([2]; read-out: EC50): 356 nM

Cc1nc2sc(C(=O)NC3CC3)c(N)c2c(C)c1Cl
EC50 [15]: > 30 µM | EC50 [16]: > 30 µM | EC50 [17]: > 30 µM | EC50 [18]: > 30 µM | %max [29]: 58% | EC50 [19]: 640 nM | %max [30]: 64% | EC50 [20]: 550 nM | %max [31]: 26% | EC50 [21]: 940 nM | %max [32]: 33% | Fu (Plasma [33]): 1.1% | EC50 [22]: 970 nM | Fu (Plasma [23]): 6.4% | fold change (FC) [24]: 54.1 | fold change (FC) [25]: 224 | EC50 [26]: 147 nM | %max [1]: 94% | EC50 ([2]; read-out: EC50): 77 nM

COCCCNC(=O)c1sc2nc(C)c(Cl)c(C)c2c1N
%max [1]: 85.7% | EC50 ([2]; read-out: EC50): 418 nM

Cc1nc2sc(C(=O)NCc3ccccc3)c(N)c2c(C)c1Cl
%max [1]: 81% | EC50 ([2]; read-out: EC50): 108 nM

Cc1nc2sc(C(=O)NCc3ncccn3)c(N)c2c(C)c1Cl
%max [1]: 51% | EC50 ([2]; read-out: EC50): 810 nM

Cc1nc2sc(C(=O)NC(C)(C)C)c(N)c2c(C)c1Cl
%max [1]: 68.3% | EC50 ([2]; read-out: EC50): 307 nM

Cc1nc2sc(C(=O)NCc3ccc(F)c(F)c3)c(N)c2c(C)c1Cl
%max [1]: 42% | EC50 ([2]; read-out: EC50): 160 nM
